Reference: patent US20050222218A1, “Screening method and compounds for treating friedreich ataxia” (priority 2002, published 2005)
Entries after “also recorded” stand apart in the source; their conditions may differ. Where two headings read alike, the source gives them in different places.

Key:
Type in all cases: cell-based, human
[1] = test system: GST activity in control cells; assay: Glutathione-S-transferase activity in control cell extracts; settings: 500 nM sodium selenite or 1 mM BSO
Experimental: (§1) Control and FRDA cells (5×10^5 cells grown in 10 cm dishes) were preincubated with sodium selenite (500 nM) for 24 hours and then subjected to 1 mM BSO treatment for 24 hours. Total cell extracts were used to measure glutathione content, glutathione peroxidase activity and glutathione-S-transferase activity.
(§2) To determine the glutathione peroxidase activity, cell extracts obtained for total GSH measurements were adjusted with PBS to a final protein concentration of 1.85 mg/ml. Enzymatic activity was measured with the Glutathione peroxidase cellular activity assay kit (Sigma, St Louis, Mo.) essentially according to the instructions of the manufacturer: Enzymatic activity was measured with 40 μg total protein extract in a final reaction volume of 100 μl. NADPH consumption was measured by the decrease in NADPH fluorescence at 445 nm. […] Glutathione-S-transferase activity was determined in the same way as the glutathione content, except that the assay was performed in the presence of an excess of glutathione (1 mM) instead of an excess of exogenous glutathione-S-transferase. Because the BSO treatment is known to deplete cellular (GSH) levels, intracellular GSH concentrations were measured first. […] Oxidized glutathione is reduced by an excess exogenous glutathione reductase that will consume a corresponding amount of NADPH that is then measured by fluorescence. […]

[2] = test system: FRDA fibroblasts; assay: BSO sensitivity of FRDA fibroblasts (cell viability)
Experimental: (§3) Friedreich Ataxia primary culture fibroblast cell lines F1 and control fibroblast line C1 were provided by the Insel-Spital Bern (Switzerland), FRDA line F3 was provided by Hopital Necker, Paris (France), FRDA lines F2 and control lines C2 and C3 were obtained from Coriell Cell Repositories (Camden, N.J.; catalog numbers GM04078, GM08402 and GM08399 respectively). Cells were grown in a humidified atmosphere supplemented with 5% CO2. […]
(§4) The cells were seeded in 96-well plates at a density of 4000 cells/well. […] Cell viability was measured when the first signs of toxicity appeared in the controls (typically after 12 to 48 h). […] The plates were washed twice with PBS and fluorescence intensity was measured with a Gemini Spectramax XS spectrofluorimeter (Molecular Devices, Sunnyvale, Calif.) using excitation and emission wavelengths of 485 nm and 525 nm respectively. Live cells imaging was performed with a Zeiss Axiovert 135M fluorescence microscope equipped with a cooled CCD camera (Sensicam, PCO Computer Optics, Kelheim, FRG). […]

[3] = test system: control fibroblasts; assay: BSO sensitivity of control fibroblasts (cell viability)
Experimental: as §3, §4

[4] = test system: intracellular GSH in control and FRDA cells; assay: Intracellular glutathione content (monochlorobimane method)
Experimental: as §1
To determine the glutathione content, cells were trypsinized, washed twice with PBS and snap frozen in 100 μl PBS. Cells were lysed in PBS supplemented with a protease inhibitor cocktail (Complete, Roche Diagnostics, Rotkreuz, Switzerland) by 4 freeze/thaw cycles. Total protein content was measured with the BioRad protein assay (BioRad, Hercules, Calif.) using calibrated bovine serum albumin solutions as standards (Pierce). Reduced glutathione content was measured essentially as described (Kamencic, H., et al., Monochlorobimane fluorometric method to measure tissue glutathione, Anal Biochem, 286, 35-7., (2000)) with a final monochlorobimane (mClB) (Molecular Probes, Eugene, Oreg.) concentration of 25 μM. The GSH-mClB adduct fluorescence was measured with a Gemini spectrofluorimeter using excitation and emission wavelengths of 380 nm and 470 nm respectively. Known amounts of reduced glutathione were used as standards.

[5] = test system: GPX enzymatic activity in control cells; assay: Glutathione peroxidase activity in control cell extracts
Experimental: as §1
(§5) To determine the glutathione peroxidase activity, cell extracts obtained for total GSH measurements were adjusted with PBS to a final protein concentration of 1.85 mg/ml. Enzymatic activity was measured with the Glutathione peroxidase cellular activity assay kit (Sigma, St Louis, Mo.) essentially according to the instructions of the manufacturer: Enzymatic activity was measured with 40 μg total protein extract in a final reaction volume of 100 μl. NADPH consumption was measured by the decrease in NADPH fluorescence at 445 nm. All measurements were done in triplicate in 96-well plates with a Gemini spectrofluorimeter using excitation and emission wavelengths of 340 nm and 445 nm respectively. Glutathione-S-transferase activity was determined in the same way as the glutathione content, except that the assay was performed in the presence of an excess of glutathione (1 mM) instead of an excess of exogenous glutathione-S-transferase. Because the BSO treatment is known to deplete cellular (GSH) levels, intracellular GSH concentrations were measured first. Any difference in basal glutathione levels between the two cell lines that were tested were not observed (FIG. 4, panel A). […] (FIG. 4, panel A). From this, it was concluded that the GSH levels per se are not responsible for the observed difference in phenotype between the two cell types. […] Therefore, GPX enzymatic activity in extracts from both cell types was compared. This measurement is based on the recycling of oxidized glutathione generated by GPX, using tert-butyl hydroperoxide as substrate. Oxidized glutathione is reduced by an excess exogenous glutathione reductase that will consume a corresponding amount of NADPH that is then measured by fluorescence. […]

[6] = test system: GPX enzymatic activity in FRDA cells; assay: Glutathione peroxidase activity in FRDA cell extracts
Experimental: as §1, §5

[7] = test system: FRDA fibroblasts; assay: Rescue of FRDA fibroblasts from BSO-induced cell death (CalceinAM/ethidium homodimer cell viability)
Experimental: Friedreich Ataxia primary culture fibroblast cell lines F1 and control fibroblast line C1 were provided by the Insel-Spital Bern (Switzerland), FRDA line F3 was provided by Hopital Necker, Paris (France), FRDA lines F2 and control lines C2 and C3 were obtained from Coriell Cell Repositories (Camden, N.J.; catalog numbers GM04078, GM08402 and GM08399 respectively). Cells were grown in a humidified atmosphere supplemented with 5% CO2. For experiments, the cells were trypsinized and resuspended at a density of 40000 cells/ml in growth medium consisting of 25% (v/v) M199 EBS and 64% (v/v) MEM EBS without phenol red (Bioconcept, Allschwil, Switzerland) supplemented with 10% (v/v) fetal calf serum (PAA Laboratories, Linz, Austria), 100 U/ml penicillin, 100 μg/ml streptomycin (PAA Laboratories, Linz, Austria), 10 μg/ml insulin (Sigma, Buchs, Switzerland), 10 ng/ml EGF (Sigma, Buchs, Switzerland) and 10 ng/ml bFGF (PreproTech, Rocky Hill, N.J.) and 2 mM glutamine (Sigma, Buchs, Switzerland).
The cells were seeded in 96-well plates at a density of 4000 cells/well. They were incubated in the presence of various concentrations of L-buthionine-(S,R)-sulfoximine (BSO), an inhibitor of γ-glutamyl cysteine synthase (EC: 6.3.2.2), the rate limiting enzyme in the biosynthesis of glutathione. Cell viability was measured when the first signs of toxicity appeared in the controls (typically after 12 to 48 h). The cells were stained for 60 min at room temperature in PBS with 1.2 μM CalceinAM and 4 μM Ethidium homodimer (Live/Dead assay, Molecular Probes, Eugene, Oreg.). The plates were washed twice with PBS and fluorescence intensity was measured with a Gemini Spectramax XS spectrofluorimeter (Molecular Devices, Sunnyvale, Calif.) using excitation and emission wavelengths of 485 nm and 525 nm respectively. Live cells imaging was performed with a Zeiss Axiovert 135M fluorescence microscope equipped with a cooled CCD camera (Sensicam, PCO Computer Optics, Kelheim, FRG). Image acquisition was performed with the ImagePro Plus software (Media Cybermetics, Silver Spring, Md.).
[…] Cell viability was measured as described in Example 2.
Cell viability was measured after a further 48 hours incubation as described in Example 2. EC50 values were deduced from the dose-response curves. The natural CoQ10 was not active in this assay (Table 1). However, a possible bioavailability problem with this molecule due to its 50 carbon atom side chain can not be ruled out. CoQ1 had EC50 values similar to Idebenone (0.2 μM). CoQ2 performed better than Idebenone, with an EC50 value of 30 nM. […] Decylubiquinone was almost as effective as CoQ2, with an EC50 of 40 nM.
FRDA cells were incubated with increasing concentrations of sodium selenite (prepared as a stock solution 5 mM in PBS) for 24 hours, then subjected to BSO stress. Cell viability was measured as described in Example 2.
Based on the previous results, the hypothesis whether small-molecules GPX mimetics could rescue the cell death phenotype of FRDA cells when exposed to BSO was tested. FRDA cells were incubated for 24 hours in the presence of Ebselen, a GPX mimetic (Muller, A., et al., “A novel biologically active seleno-organic compound—I. Glutathione peroxidase-like activity in vitro and antioxidant capacity of PZ 51 (Ebselen)”, Biochem Pharmacol, 33, 3235-9., (1984)) and then subjected to 1 mM BSO treatment.
FRDA cells were incubated in the presence of a number of GPX mimetics. Two classes of molecules (FIG. 7) were evaluated: monoselenides (compound number 4, 5 and 8) and diselenides (compound number 1-3, 6, 7, 9-16). Dose-response curves were obtained for each molecule. From the dose-response curves not only the EC50, but also the concentration range for which a molecule produced at least 50% cell survival upon BSO challenge was calculated (FIG. 8).
GPX mimetics were tested as described in Example 3. Dose-response curves were obtained for all compounds tested. […]

[8] = test system: GST activity in FRDA cells; assay: Glutathione-S-transferase activity in FRDA cell extracts; settings: 500 nM sodium selenite
Experimental: as §1, §2

[9] = test system: FRDA fibroblasts; assay: Rescue of FRDA fibroblasts from BSO-induced cell death (CalceinAM/ethidium homodimer cell viability); settings: no preincubation
[10] = Homo sapiens, Fibroblast, Table 1, 24 h preincubation, 1 mM BSO, viability after further 48 h, read-out: EC50
[11] = FRDA cells preincubated 24 h with compound, then 1 mM BSO, read-out: EC50 value, prevention of cell death
[12] = 500 nM sodium selenite, then 1 mM BSO

Molecule: CCCCS(=N)(=O)CCC(N)C(=O)O [BSO, L-buthionine-(S,R)-sulfoximine]
- effect on GST activity [1]: neither modulated
- viability compared to untreated controls ([2]; 1 mM BSO, FRDA cell lines F1-F3): less than 10%
- BSO concentration giving marked reduction in cell titer ([2]; overnight exposure): 4 µM
- viability compared to untreated controls (average) ([3]; 1 mM BSO, control cell lines C1-C3): 60%
- BSO concentration giving slight decrease in cell density ([3]; overnight exposure): 100 µM
- effect of BSO on glutathione levels ([4]; 1 mM BSO 24 h, both cell types): reduction in glutathione levels
- effect of BSO on GPX enzyme activity ([5]; 1 mM BSO 24 h, no selenium): small decrease in enzyme activity
- effect of BSO on GPX enzyme activity ([6]; 1 mM BSO 24 h, no selenium): small decrease in enzyme activity

Molecule: CCCCCCCCCCC1=C(C)C(=O)C(OC)=C(OC)C1=O [Decylubiquinone, 2,3-Dimethoxy-5-methyl-6-decyl-1,4-benzoquinone]
- working range (concentrations giving at least 50% cell viability) ([7]; 1 mM BSO): up to 3 orders of magnitude
- EC50 ([7]; Homo sapiens, Fibroblast, FRDA cells preincubated 24 h with compound, then 1 mM BSO, viability after further 48 h, read-out: EC50 value, rescue of FRDA cell death): 40 nM
- EC50 [7, 10]: 40 nM

Molecule: COC1=C(OC)C(=O)C(C/C=C(\C)CCC=C(C)C)=C(C)C1=O [CoQ2]
- EC50 ([7]; FRDA cells preincubated 24 h with compound, then 1 mM BSO, viability after further 48 h, read-out: EC50 value, rescue of FRDA cell death): 30 nM

Molecule: COC1=C(OC)C(=O)C(C)=CC1=O [CoQ0]
- activity in rescuing FRDA cells from BSO (in words) ([7]; 24 h preincubation, 1 mM BSO): inactive; also recorded: not active

Molecule: COC1=C(OC)C(=O)C(C/C=C(\C)CC/C=C(\C)CC/C=C(\C)CC/C=C(\C)CC/C=C(\C)CC/C=C(\C)CC/C=C(\C)CC/C=C(\C)CC/C=C(\C)CCC=C(C)C)=C(C)C1=O [CoQ10]
- activity in rescuing FRDA cells from BSO (in words) ([7]; 24 h preincubation, 1 mM BSO): not active; also recorded: did not reach the 50% cell viability rescue
- EC50 ([7]; Table 1, 24 h preincubation, 1 mM BSO, viability after further 48 h, read-out: EC50): > 50000 nM

Molecule: COC1=C(OC)C(=O)C(CCCCCCCCCCO)=C(C)C1=O [Idebenone, 2,3-dimethoxy-5-methyl-6(10-hydroxydecyl)-1,4-benzoquinone]
- rescue effect at the highest concentration tested ([7]; 50 μM compound, 1 mM BSO): slightly diminished
- appearance of treated cells upon microscopic examination ([7]; 1 mM BSO + 5 μM Idebenone, CalceinAM/ethidium homodimer): undistinguishable from untreated cells
- concentration at which full rescue was observed ([7]; 24 h preincubation, 1 mM BSO): 2 µM
- EC50 ([7]; Homo sapiens, Fibroblast, FRDA cells preincubated 24 h with compound, then 1 mM BSO, read-out: EC50 value, prevention of cell death): 500 nM
- EC50 [7, 10]: 500 nM

Molecule: Cc1c(C)c2c(c(C)c1O)CCC(C)(C(=O)O)O2 (stereo not shown) [Trolox, 6-hydroxy-2,5,7,8-tetramethylchroman-2-carboxylic acid]
- viability at 25 µM ([7]; Homo sapiens, Fibroblast, read-out: cell viability preserved): 60%
- cell viability ([7]; concentrations higher than 25 μM, 1 mM BSO): 55%

Molecule: Vitamin E
- EC50 [7, 11]: 700 nM

Molecule: CoQ1
- EC50 [7, 11]: 200 nM

Molecule: O=[Se]([O-])[O-].[Na+].[Na+] [sodium selenite]
- effect on GST activity [8]: slightly reduces
- effect on GST activity [1]: neither modulated
- concentration that protected the cells fully ([7]; 24 h preincubation, then BSO): 200 nM
- effect of concentrations higher than 200 nM ([7]; 24 h preincubation, then BSO): enhanced cell growth
- protection when added at the same time as BSO [9]: did not protect
- effect of selenium preincubation on BSO glutathione depletion ([4]; 500 nM sodium selenite 24 h, then 1 mM BSO 24 h): did not prevent the glutathione depletion
- effect on basal GPX activity ([5]; 500 nM sodium selenite, no BSO): not enhanced
- effect on GPX activity under BSO treatment [5, 12]: prevented the enzyme activity loss
- increase in basal GPX enzyme activity ([6]; 500 nM sodium selenite, no BSO): 50%
- factor of increase in GPX activity [6, 12]: 3
